Consider 11 compounds from publication PMC7345083, “Vancomycin-Lipopeptide Conjugates with High Antimicrobial Activity on Vancomycin-Resistant Enterococci” (Pharmaceuticals, 2020).

Values after ≈ are worked out from the molar mass of the structure shown.

The subject of assay [1] is E. faecium ATCC 51559 (vanA). It is filed as cell-based, Enterococcus faecium. Conditions: ATCC 51559, 18 h. As for the experimental part: (§1) The minimum inhibitory concentration (MIC) was determined by microdilution following the EUCAST and CLSI guidelines via the broth microdilution assay on a 96-well plate. Substances were dissolved in saline solution (0.9%) at a concentration equimolar to 1.28 mg/mL vancomycin. With an increasing hydrophobicity, some substances had to be pre-dissolved in DMSO. The final concentration of DMSO remained below 1.5% and was compared to the DMSO control (no antimicrobial effect was observed up to the highest concentration tested (10%)). All substances were serially diluted on the 96-well plate using Mueller-Hinton-Broth II (cation adjusted). Vancomycin was always used as a control. For bacterial loading, an overnight culture of the referring strain was taken and adjusted to a turbidity corresponding to 10^8 cfu/mL. The bacterial suspension was further diluted to load a bacterial number of 10^6 cfu/mL on the 96-well plate and incubate it for 18 h at 35 ± 1 °C, as described before. MIC was defined as the lowest concentration without visible growth.

Assay [2] concerns E. faecalis ATCC 51299 (vanB). It is filed as cell-based, Enterococcus faecalis. As to conditions: ATCC 51299, 18 h. As for the experimental part:
as §1

Assay [3] has as its system Enterococcus faecium UL602570 (vanA, clinical isolate). It is filed as cell-based. Conditions: UL602570 (vanA, clinical isolate, 18 h). As for the experimental part:
as §1

For assay [4], the system named is Enterococcus casseliflavus ATCC 700327 (vanC). It is filed as cell-based. As to conditions: ATCC 700327, 18 h. Here is the method:
as §1

In the case of `CCCCCCCCCCCC(=O)N[C@@H](CCCNC(=N)N)C(=O)N[C@@H](CCCNC(=N)N)C(=O)N[C@@H](CCCNC(=N)N)C(=O)N[C@@H](CSC1CC(=O)N(CC2CCC(C(=O)NCCNC(=O)[C@H]3NC(=O)[C@H]4NC(=O)[C@H](NC(=O)[C@@H]5NC(=O)[C@H](CC(N)=O)NC(=O)[C@H](NC(=O)[C@@H](CC(C)C)NC)[C@H](O)c6ccc(c(Cl)c6)Oc6cc5cc(c6O[C@@H]5O[C@H](CO)[C@@H](O)[C@H](O)[C@H]5O[C@H]5C[C@](C)(N)[C@H](O)[C@H](C)O5)Oc5ccc(cc5Cl)[C@H]4O)c4ccc(O)c(c4)-c4c(O)cc(O)cc43)CC2)C1=O)C(N)=O` (some centres unmarked) [VC-R3C-C12], the MIC median was found to be 4.84 µg/mL (≈ 1.95 µM) in assay [1], 4 µg/mL (≈ 1.61 µM) in assay [2], 4.84 µg/mL (≈ 1.95 µM) in assay [3] and 4 µg/mL (≈ 1.61 µM) in assay [4]. The MIC range lay within 4.84 to 9.69 µg/mL in assay [1], 2.42 to 4.84 µg/mL in assay [3] and 1 to 4 µg/mL in assay [4].

On to `CCCCCCCCCCCC(=O)N[C@@H](CCCNC(=N)N)C(=O)N[C@@H](CCCNC(=N)N)C(=O)N[C@@H](CCCNC(=N)N)C(=O)N[C@@H](CSC1CC(=O)N(CC2CCC(C(=O)N(C)[C@H](CC(C)C)C(=O)N[C@H]3C(=O)N[C@@H](CC(N)=O)C(=O)N[C@H]4C(=O)N[C@H]5C(=O)N[C@H](C(=O)N[C@H](C(=O)O)c6cc(O)cc(O)c6-c6cc5ccc6O)[C@H](O)c5ccc(c(Cl)c5)Oc5cc4cc(c5O[C@@H]4O[C@H](CO)[C@@H](O)[C@H](O)[C@H]4O[C@H]4C[C@](C)(N)[C@H](O)[C@H](C)O4)Oc4ccc(cc4Cl)[C@H]3O)CC2)C1=O)C(N)=O` (some centres unmarked) [VN-R3C-C12], for which the MIC median came out at 4.72 µg/mL (≈ 1.93 µM) in assay [1], 4 µg/mL (≈ 1.64 µM) in assay [2], 2.37 µg/mL (≈ 0.971 µM) in assay [3] and 2.5 µg/mL (≈ 1.02 µM) in assay [4]. Also, the MIC range was 4.72 to 9.44 µg/mL in assay [1], 2.37 to 4.73 µg/mL in assay [3] and 1 to 4 µg/mL in assay [4].

Turning to `CC(C)C[C@H](C(=O)N[C@H]1C(=O)N[C@@H](CC(N)=O)C(=O)N[C@H]2C(=O)N[C@H]3C(=O)N[C@H](C(=O)N[C@H](C(=O)O)c4cc(O)cc(O)c4-c4cc3ccc4O)[C@H](O)c3ccc(c(Cl)c3)Oc3cc2cc(c3O[C@@H]2O[C@H](CO)[C@@H](O)[C@H](O)[C@H]2O[C@H]2C[C@](C)(N)[C@H](O)[C@H](C)O2)Oc2ccc(cc2Cl)[C@H]1O)N(C)C(=O)C1CCC(CN2C(=O)CC(SC[C@H](NC(=O)[C@H](CCCNC(=N)N)NC(=O)[C@H](CCCNC(=N)N)NC(=O)[C@@H](N)CCCNC(=N)N)C(N)=O)C2=O)CC1` (some centres unmarked) [VN-R3C], in assay [3], the MIC median came to 67.75 µg/mL (≈ 30 µM) and the MIC range was 32.00 to 67.75 µg/mL.

For the compound `CCCCCC(=O)N[C@@H](CCCNC(=N)N)C(=O)N[C@@H](CCCNC(=N)N)C(=O)N[C@@H](CCCNC(=N)N)C(=O)N[C@@H](CSC1CC(=O)N(CC2CCC(C(=O)NCCN[C@@]3(C)C[C@H](O[C@H]4[C@H](Oc5c6cc7cc5Oc5ccc(cc5Cl)[C@@H](O)[C@@H](NC(=O)[C@@H](CC(C)C)NC)C(=O)N[C@@H](CC(N)=O)C(=O)N[C@H]7C(=O)N[C@H]5C(=O)N[C@H](C(=O)N[C@H](C(=O)O)c7cc(O)cc(O)c7-c7cc5ccc7O)[C@H](O)c5ccc(c(Cl)c5)O6)O[C@H](CO)[C@@H](O)[C@@H]4O)O[C@@H](C)[C@H]3O)CC2)C1=O)C(N)=O` (some centres unmarked) [VV-R3C-C6], in assay [3], the MIC median came out at 4.63 µg/mL (≈ 1.93 µM) and the MIC range is 2.31 to 9.25 µg/mL.

For `CCCCCCCC(=O)N[C@@H](CCCNC(=N)N)C(=O)N[C@@H](CCCNC(=N)N)C(=O)N[C@@H](CCCNC(=N)N)C(=O)N[C@@H](CSC1CC(=O)N(CC2CCC(C(=O)NCCN[C@@]3(C)C[C@H](O[C@H]4[C@H](Oc5c6cc7cc5Oc5ccc(cc5Cl)[C@@H](O)[C@@H](NC(=O)[C@@H](CC(C)C)NC)C(=O)N[C@@H](CC(N)=O)C(=O)N[C@H]7C(=O)N[C@H]5C(=O)N[C@H](C(=O)N[C@H](C(=O)O)c7cc(O)cc(O)c7-c7cc5ccc7O)[C@H](O)c5ccc(c(Cl)c5)O6)O[C@H](CO)[C@@H](O)[C@@H]4O)O[C@@H](C)[C@H]3O)CC2)C1=O)C(N)=O` (some centres unmarked) [VV-R3C-C8], in assay [3], the MIC median came out at 1.49 µg/mL (≈ 0.614 µM) and the MIC range lay in the range of 0.30 to 2.39 µg/mL.

In assay [3], `CCCCCCCCCC(=O)N[C@@H](CCCNC(=N)N)C(=O)N[C@@H](CCCNC(=N)N)C(=O)N[C@@H](CCCNC(=N)N)C(=O)N[C@@H](CSC1CC(=O)N(CC2CCC(C(=O)NCCN[C@@]3(C)C[C@H](O[C@H]4[C@H](Oc5c6cc7cc5Oc5ccc(cc5Cl)[C@@H](O)[C@@H](NC(=O)[C@@H](CC(C)C)NC)C(=O)N[C@@H](CC(N)=O)C(=O)N[C@H]7C(=O)N[C@H]5C(=O)N[C@H](C(=O)N[C@H](C(=O)O)c7cc(O)cc(O)c7-c7cc5ccc7O)[C@H](O)c5ccc(c(Cl)c5)O6)O[C@H](CO)[C@@H](O)[C@@H]4O)O[C@@H](C)[C@H]3O)CC2)C1=O)C(N)=O` (some centres unmarked) [VV-R3C-C10] displayed an MIC median of 0.63 µg/mL (≈ 0.257 µM) and an MIC range of 0.05 to 0.84 µg/mL.

In assay [3], `CCCCCCCCCCCCCC(=O)N[C@@H](CCCNC(=N)N)C(=O)N[C@@H](CCCNC(=N)N)C(=O)N[C@@H](CCCNC(=N)N)C(=O)N[C@@H](CSC1CC(=O)N(CC2CCC(C(=O)NCCN[C@@]3(C)C[C@H](O[C@H]4[C@H](Oc5c6cc7cc5Oc5ccc(cc5Cl)[C@@H](O)[C@@H](NC(=O)[C@@H](CC(C)C)NC)C(=O)N[C@@H](CC(N)=O)C(=O)N[C@H]7C(=O)N[C@H]5C(=O)N[C@H](C(=O)N[C@H](C(=O)O)c7cc(O)cc(O)c7-c7cc5ccc7O)[C@H](O)c5ccc(c(Cl)c5)O6)O[C@H](CO)[C@@H](O)[C@@H]4O)O[C@@H](C)[C@H]3O)CC2)C1=O)C(N)=O` (some centres unmarked) [VV-R3C-C14] showed an MIC median of 0.46 µg/mL (≈ 0.183 µM) and an MIC range of 0.31 to 0.62 µg/mL.

In assay [3], `CCCCCCCCCCCCCCCC(=O)N[C@@H](CCCNC(=N)N)C(=O)N[C@@H](CCCNC(=N)N)C(=O)N[C@@H](CCCNC(=N)N)C(=O)N[C@@H](CSC1CC(=O)N(CC2CCC(C(=O)NCCN[C@@]3(C)C[C@H](O[C@H]4[C@H](Oc5c6cc7cc5Oc5ccc(cc5Cl)[C@@H](O)[C@@H](NC(=O)[C@@H](CC(C)C)NC)C(=O)N[C@@H](CC(N)=O)C(=O)N[C@H]7C(=O)N[C@H]5C(=O)N[C@H](C(=O)N[C@H](C(=O)O)c7cc(O)cc(O)c7-c7cc5ccc7O)[C@H](O)c5ccc(c(Cl)c5)O6)O[C@H](CO)[C@@H](O)[C@@H]4O)O[C@@H](C)[C@H]3O)CC2)C1=O)C(N)=O` (some centres unmarked) [VV-R3C-C16] gave an MIC median of 2.50 µg/mL (≈ 0.985 µM) and an MIC range of 2.50 to 3.50 µg/mL.

In assay [3], `CCCCCCCCCCCCCCCCCC(=O)N[C@@H](CCCNC(=N)N)C(=O)N[C@@H](CCCNC(=N)N)C(=O)N[C@@H](CCCNC(=N)N)C(=O)N[C@@H](CSC1CC(=O)N(CC2CCC(C(=O)NCCN[C@@]3(C)C[C@H](O[C@H]4[C@H](Oc5c6cc7cc5Oc5ccc(cc5Cl)[C@@H](O)[C@@H](NC(=O)[C@@H](CC(C)C)NC)C(=O)N[C@@H](CC(N)=O)C(=O)N[C@H]7C(=O)N[C@H]5C(=O)N[C@H](C(=O)N[C@H](C(=O)O)c7cc(O)cc(O)c7-c7cc5ccc7O)[C@H](O)c5ccc(c(Cl)c5)O6)O[C@H](CO)[C@@H](O)[C@@H]4O)O[C@@H](C)[C@H]3O)CC2)C1=O)C(N)=O` (some centres unmarked) [VV-R3C-C18] registered an MIC median of 2.54 µg/mL (≈ 0.99 µM) and an MIC range of 1.27 to 2.54 µg/mL.

On to `CN[C@H](CC(C)C)C(=O)N[C@H]1C(=O)N[C@@H](CC(N)=O)C(=O)N[C@H]2C(=O)N[C@H]3C(=O)N[C@H](C(=O)N[C@H](C(=O)O)c4cc(O)cc(O)c4-c4cc3ccc4O)[C@H](O)c3ccc(c(Cl)c3)Oc3cc2cc(c3O[C@@H]2O[C@H](CO)[C@@H](O)[C@H](O)[C@H]2O[C@H]2C[C@](C)(NCCNC(=O)C3CCC(CN4C(=O)CC(SC[C@H](NC(=O)[C@H](CCCNC(=N)N)NC(=O)[C@H](CCCNC(=N)N)NC(=O)[C@@H](N)CCCNC(=N)N)C(N)=O)C4=O)CC3)[C@H](O)[C@H](C)O2)Oc2ccc(cc2Cl)[C@H]1O` (some centres unmarked) [VV-R3C], for which, in assay [3], the MIC median stood at 4.35 µg/mL (≈ 1.89 µM) and the MIC range fell in the range of 4.35 to 8.69 µg/mL.

In assay [3], `CCCCCCCCCCCC(=O)N[C@@H](CCCNC(=N)N)C(=O)N[C@@H](CCCNC(=N)N)C(=O)N[C@@H](CCCNC(=N)N)C(=O)N[C@H](Cc1ccc(O)cc1)C(=O)N[C@@H](CSC1CC(=O)N(CC2CCC(C(=O)NCCN[C@@]3(C)C[C@H](O[C@H]4[C@H](Oc5c6cc7cc5Oc5ccc(cc5Cl)[C@@H](O)[C@@H](NC(=O)[C@@H](CC(C)C)NC)C(=O)N[C@@H](CC(N)=O)C(=O)N[C@H]7C(=O)N[C@H]5C(=O)N[C@H](C(=O)N[C@H](C(=O)O)c7cc(O)cc(O)c7-c7cc5ccc7O)[C@H](O)c5ccc(c(Cl)c5)O6)O[C@H](CO)[C@@H](O)[C@@H]4O)O[C@@H](C)[C@H]3O)CC2)C1=O)C(N)=O` (some centres unmarked) [VV-R3yC-C12] came in with an MIC median of 1.02 µg/mL (≈ 0.386 µM) and an MIC range of 0.25 to 2.03 µg/mL.
